Our source for the IC50 values is patent US20050256176A1, “Sulphonamide derivatives and their use as tace inhibitors” (priority 2002, published 2005).

This assay deals with T1, proTNF-α convertase enzyme (TACE) (Homo sapiens, UniProt P78536).
T1 construct: a partially purified, isolated enzyme assay, the enzyme being obtained from the membranes of THP-1; endogenous in cells; host or cells: THP-1 cell membranes, partially purified as in Mohler et al. (1994) Nature 370:218-220
As to the kind of experiment: Isolated enzyme assay, proTNF-α convertase (TACE), fluorescent peptide substrate. The class given is biochemical. Conditions: partially purified enzyme from membranes of THP-1; 26° C. for 4 hours; read-out: concentration giving 50% inhibition of TACE. The protocol:
Recombinant human proMMP13 may be expressed and purified as described by Knauper et al. [V. Knauper et al., (1996) […] 271:1544-1550 (1996)]. […] Activity is determined by measuring the fluorescence at λex 328 nm and λem 393 nm. Percent inhibition is calculated as follows: % Inhibition is equal to the [Fluorescenceplus inhibitor−Fluorescencebackground] divided by the [Fluorescenceminus inhibitor−Fluorescencebackground].
The ability of the compounds to inhibit proTNF-α convertase enzyme (TACE) may be assessed using a partially purified, isolated enzyme assay, the enzyme being obtained from the membranes of THP-1 as described by K. M. Mohler et al., (1994) Nature 370:218-220. The purified enzyme activity and inhibition thereof is determined by incubating the partially purified enzyme in the presence or absence of test compounds using the substrate 4′,5′-Dimethoxy-fluoresceinyl Ser.Pro.Leu.Ala.Gln.Ala.Val.Arg.Ser.Ser.Ser.Arg.Cys(4-(3-succinimid-1-yl)-fluorescein)-NH2 in assay buffer (50 mM Tris HCl, pH 7.4 containing 0.1% (w/v) Triton X-100 and 2 mM CaCl2), at 26° C. for 4 hours. The amount of inhibition is determined as for MMP13 except λex 485 nm and λem 538 nm were used. […]

Structures are written as SMILES.

T1 sequence (P78536 215-824): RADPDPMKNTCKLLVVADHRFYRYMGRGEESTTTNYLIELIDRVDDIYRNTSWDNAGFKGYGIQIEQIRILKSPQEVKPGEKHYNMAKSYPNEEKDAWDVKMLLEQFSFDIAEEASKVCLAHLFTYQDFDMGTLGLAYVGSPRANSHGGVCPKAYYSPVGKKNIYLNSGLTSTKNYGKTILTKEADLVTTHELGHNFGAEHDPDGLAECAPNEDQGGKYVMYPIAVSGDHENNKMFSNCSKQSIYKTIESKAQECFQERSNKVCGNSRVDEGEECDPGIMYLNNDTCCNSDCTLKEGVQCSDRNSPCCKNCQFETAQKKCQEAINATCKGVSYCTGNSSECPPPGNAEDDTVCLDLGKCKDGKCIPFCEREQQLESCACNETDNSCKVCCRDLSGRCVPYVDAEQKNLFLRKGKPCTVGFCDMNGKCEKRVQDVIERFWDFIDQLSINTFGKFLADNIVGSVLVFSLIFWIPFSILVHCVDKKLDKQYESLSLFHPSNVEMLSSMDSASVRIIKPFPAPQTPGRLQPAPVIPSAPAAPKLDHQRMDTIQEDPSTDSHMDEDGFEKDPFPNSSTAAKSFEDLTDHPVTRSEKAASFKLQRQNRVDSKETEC

Take `Cc1cc(COc2ccc(NS(=O)(=O)CC3(C)NC(=O)NC3=O)cc2)c2ccccc2n1` (centres unmarked) [Example 1A, 1-(4-methyl-2,5-dioxoimidazolidin-4-yl)-N-{4-[(2-methylquinolin-4-yl)methoxy]phenyl}methanesulphonamide]: the IC50 came to 71 nM.
For the compound `CCC1(CS(=O)(=O)Nc2ccc(OCc3cc(C)nc4ccccc34)cc2)NC(=O)NC1=O` (centres unmarked) [Example 2A, 1-(4-ethyl-2,5-dioxoimidazolidin-4-yl)-N-{4-[(2-methylquinolin-4-yl)methoxy]phenyl}methanesulphonamide], the IC50 worked out at 37 nM.
